Columns and labels:
Format in all cases: biochemical
p38 MAPKα = p38 MAPKα (Homo sapiens (Human), UniProt Q16539); test: p38 MAPKα enzyme inhibition (Method 2), Z-LYTE FRET
Method: (§1) The enzyme inhibitory activities of compounds disclosed herein are determined by FRET using synthetic peptides labelled with both donor and acceptor fluorophores (Z-LYTE, Invitrogen Ltd., Paisley, UK).
The inhibitory activities of test compounds against the p38 MAPKα isoform (MAPK14: Invitrogen), are evaluated indirectly by determining the level of activation/phosphorylation of the down-stream molecule, MAPKAP-K2. The p38 MAPKα protein (80 ng/mL, 2.5 μL) is mixed with the test compound (2.5 μL of either 4 μg/mL, 0.4 μg/mL, 0.04 μg/mL or 0.004 μg/mL) for 2 hr at RT. […] The mixture is incubated for 1 hr at RT. Development reagent (protease, […]) is added for 1 hr prior to detection in a fluorescence microplate reader (Varioskan® Flash, ThermoFisher Scientific).
This method follows the same steps as Method 1 above, but utilises a higher concentration of the p38 MAPKα protein (2.5 μL of 200 ng/mL protein instead of 2.5 μL of 80 ng/mL protein) for mixing with the test compound.
(§2) In all cases, the site-specific protease cleaves non-phosphorylated peptide only and eliminates the FRET signal. Phosphorylation levels of each reaction are calculated using the ratio of coumarin emission (donor) over fluorescein emission (acceptor), for which high ratios indicate high phosphorylation and low ratios indicate low phosphorylation levels. The percentage inhibition of each reaction is calculated relative to non-inhibited control and the 50% inhibitory concentration (IC50 value) is then calculated from the concentration-response curve.

Syk = Syk (Homo sapiens (Human), UniProt P43405); test: Syk enzyme inhibition, Z-LYTE FRET
Method: as §1
The inhibitory activities of compounds of the invention against c-Src and Syk enzymes (Invitrogen), are evaluated in a similar fashion to that described hereinabove. The relevant enzyme (3000 ng/mL or 2000 ng/mL respectively, 2.5 μL) is incubated with the test compound (either 4 μg/mL, 0.4 μg/mL, 0.04 μg/mL, or 0.004 μg/mL, 2.5 μL each) for 2 hr at RT. The FRET peptides (8 μM. 2.5 μL), and appropriate ATP solutions (2.5 μL, 800 μM for c-Src, and 60 μM ATP for Syk) are then added to the enzymes/compound mixtures and incubated for 1 hr. Development reagent (protease, 5 μL) is added for 1 hr prior to detection in a fluorescence microplate reader (Varioskan® Flash, ThermoFisher Scientific).
as §2

GSK3α = GSK3α (Homo sapiens (Human), UniProt P49840); test: GSK 3α enzyme inhibition (Method 2), Z-LYTE FRET
Method: as §1
The inhibitory activities of compounds of the invention against the GSK 3α enzyme isoform (Invitrogen), are evaluated by determining the level of activation/phosphorylation of the target peptide. The GSK3-α protein (500 ng/mL, 2.5 μL) is mixed with the test compound (2.5 μL at either 4 μg/mL, 0.4 μg/mL, 0.04 μg/mL, or 0.004 μg/mL) for 2 hr at RT. The FRET peptide (8 μM, 2.5 μL), which is a phosphorylation target for GSK3α, and ATP (40 μM, 2.5 μL) are then added to the enzyme/compound mixture and the resulting mixture incubated for 1 hr. Development reagent (protease, 5 μL) is added for 1 hr prior to detection in a fluorescence microplate reader (Varioskan® Flash, ThermoFisher Scientific).
as §2
This method follows the same steps as Method 1 above, but utilises a shorter period of mixing of the test compound (105 minutes instead of 2 hours) with the GSK3-α protein.

Chain of GSK3α (P49840 whole entry): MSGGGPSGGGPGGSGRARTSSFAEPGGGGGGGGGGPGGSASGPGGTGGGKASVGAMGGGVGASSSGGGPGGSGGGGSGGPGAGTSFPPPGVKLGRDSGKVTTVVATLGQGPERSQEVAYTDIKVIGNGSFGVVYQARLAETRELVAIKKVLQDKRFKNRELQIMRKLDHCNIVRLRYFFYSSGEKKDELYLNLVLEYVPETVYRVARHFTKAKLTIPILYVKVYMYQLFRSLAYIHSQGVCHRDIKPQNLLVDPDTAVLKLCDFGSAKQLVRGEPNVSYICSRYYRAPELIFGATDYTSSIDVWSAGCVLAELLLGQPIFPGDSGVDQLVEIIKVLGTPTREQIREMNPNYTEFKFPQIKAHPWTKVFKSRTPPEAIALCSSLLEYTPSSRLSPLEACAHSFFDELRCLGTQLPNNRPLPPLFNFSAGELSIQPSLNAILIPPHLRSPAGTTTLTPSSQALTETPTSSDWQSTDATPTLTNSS
Chain of p38 MAPKα (Q16539 whole entry): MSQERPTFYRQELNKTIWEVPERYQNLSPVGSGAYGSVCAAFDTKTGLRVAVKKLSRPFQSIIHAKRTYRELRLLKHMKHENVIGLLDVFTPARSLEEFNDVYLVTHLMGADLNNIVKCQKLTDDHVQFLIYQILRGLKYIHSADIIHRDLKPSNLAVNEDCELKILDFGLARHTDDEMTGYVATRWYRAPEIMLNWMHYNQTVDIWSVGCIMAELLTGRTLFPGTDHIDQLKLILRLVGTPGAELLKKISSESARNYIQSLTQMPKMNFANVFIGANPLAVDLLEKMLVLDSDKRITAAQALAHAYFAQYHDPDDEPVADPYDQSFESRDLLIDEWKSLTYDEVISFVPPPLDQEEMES

| IC50 (p38 MAPKα) [nM] | IC50 (Syk) [nM] | IC50 (GSK3α) [nM] | SMILES |
| --- | --- | --- | --- |
| 380 | 50 | > 10000 | C#CC(C)(C)c1cc(NC(=O)Nc2ccc(Oc3ccnc(Nc4cc(C)c5[nH]ncc5c4)n3)c3ccccc23)n(-c2ccc(C)cc2)n1 [Example 2, 1-(4-((2-((7-Methyl-1H-indazol-5-yl)amino)pyrimidin-4-yl)oxy)naphthalen-1-yl)-3-(3-(2-methylbut-3-yn-2-yl)-1-(p-tolyl)-1H-pyrazol-5-yl)urea] |
| 152 | 61 | 6400 | C#CC(C)(C)c1cc(NC(=O)Nc2ccc(Oc3ccnc(Nc4cc(OC)cc(OCCOCCOCCOC)c4)n3)c3ccccc23)n(-c2ccc(C)cc2)n1 [Example 13, 1-(4-((2-((3-Methoxy-5-(2-(2-(2-methoxyethoxy)ethoxy)ethoxy)phenyl)amino)pyrimidin-4-yl)oxy)naphthalen-1-yl)-3-(3-(2-methylbut-3-yn-2-yl)-1-(p-tolyl)-1H-pyrazol-5-yl)urea] |
